From patent publication US20240309005A1 (priority 2021, published 2024)
Converted amounts (≈) assume the structure as drawn.

Experiment: physchem
Conditions: 25 °C, kinetic from dmso stock

Row | solubility at 2 h (pH 5, fessif) | solubility at 2 h (pH 7.4, aqueous buffer) | Compound
1 | 262 µM (≈ 140 µg/mL) | 0.92 µM (≈ 0.492 µg/mL) | Cc1n[nH]c2nc(-c3ccc(NS(=O)(=O)c4cc(Cl)ccc4F)cc3)nc(O[C@@H]3CN(C)C[C@@H]3F)c12 [Compound 58, 5-chloro-2-fluoro-N-[4-(4-{[(3R,4S)-4-fluoro-1-methylpyrrolidin-3-yl]oxy}-3-methyl-1H-pyrazolo[3,4-d]pyrimidin-6-yl)phenyl]benzenesulfonamide]
2 | 302 µM (≈ 146 µg/mL) | 2.26 µM (≈ 1.09 µg/mL) | Cc1n[nH]c2nc(-c3ccc(NS(=O)(=O)c4cccnc4)cc3)nc(NCCN(C)CCO)c12 [Compound 21, N-[4-[4-([2-[(2-hydroxyethyl)(methyl)amino]ethyl]amino)-3-methyl-1H-pyrazolo[3,4-d]pyrimidin-6-yl]phenyl]pyridine-3-sulfonamide]
3 | 211 µM (≈ 113 µg/mL) | 16.8 µM (≈ 8.99 µg/mL) | Cc1n[nH]c2nc(-c3ccc(NS(=O)(=O)c4cc(Cl)ccc4F)cc3)nc(O[C@H]3CCNC[C@@H]3F)c12 [Compound 47, 5-chloro-2-fluoro-N-(4-(4-(((3S,4S)-3-fluoropiperidin-4-yl)oxy)-3-methyl-1H-pyrazolo[3,4-d]pyrimidin-6-yl)phenyl)benzenesulfonamide]
4 | 279 µM (≈ 127 µg/mL) | 290 µM (≈ 132 µg/mL) | C=CS(=O)(=O)Nc1ccc(-c2nc(OC3CCN(C(C)C)CC3)c3c(C)n[nH]c3n2)cc1 [Compound 1, N-(4-(4-((1-isopropylpiperidin-4-yl)oxy)-3-methyl-1H-pyrazolo[3,4-d]pyrimidin-6-yl)phenyl)ethenesulfonamide]
5 | 277 µM (≈ 134 µg/mL) | 82 µM (≈ 39.6 µg/mL) | Cc1n[nH]c2nc(-c3ccc(NS(=O)(=O)c4ccccn4)cc3)nc(NCCN(C)CCO)c12 [Compound 20]
6 | 285 µM (≈ 156 µg/mL) | 5.1 µM (≈ 2.78 µg/mL) | Cc1n[nH]c2nc(-c3ccc(NS(=O)(=O)c4cc(Cl)ccc4F)cc3)nc(NCCN3CCOCC3)c12 [Compound 26, 5-chloro-2-fluoro-N-(4-(3-methyl-4-((2-morpholinoethyl)amino)-1H-pyrazolo[3,4-d]pyrimidin-6-yl)phenyl)benzenesulfonamide]
7 | 289 µM (≈ 146 µg/mL) | 8.5 µM (≈ 4.28 µg/mL) | Cc1n[nH]c2nc(-c3ccc(NS(=O)(=O)c4cc(Cl)ccc4F)cc3)nc(NCCN(C)C)c12 [Compound 9, 5-chloro-N-(4-(4-((2-(dimethylamino)ethyl)amino)-3-methyl-1H-pyrazolo[3,4-d]pyrimidin-6-yl)phenyl)-2-fluorobenzenesulfonamide]
8 | 73.7 µM (≈ 40.5 µg/mL) | 0.48 µM (≈ 0.264 µg/mL) | CCN1C[C@H](F)[C@H](Oc2nc(-c3ccc(NS(=O)(=O)c4cc(Cl)ccc4F)cc3)nc3[nH]nc(C)c23)C1 [Compound 56, 5-chloro-N-[4-(4-{[(3R,4S)-1-ethyl-4-fluoropyrrolidin-3-yl]oxy}-3-methyl-1H-pyrazolo[3,4-d]pyrimidin-6-yl)phenyl]-2-fluorobenzenesulfonamide]
9 | 210 µM (≈ 116 µg/mL) | 0.73 µM (≈ 0.403 µg/mL) | [2H]C([2H])([2H])N1CC[C@@H](Oc2nc(-c3ccc(NS(=O)(=O)c4cc(Cl)ccc4F)cc3)nc3[nH]nc(C)c23)[C@@H](F)C1 [Compound 65, 5-chloro-2-fluoro-N-(4-(4-(((3S,4R)-3-fluoro-1-(methyl-d3)piperidin-4-yl)oxy)-3-methyl-1H-pyrazolo[3,4-d]pyrimidin-6-yl)phenyl)benzenesulfonamide]
10 | 244 µM (≈ 126 µg/mL) | 1.37 µM (≈ 0.708 µg/mL) | Cc1n[nH]c2nc(-c3ccc(NS(=O)(=O)c4cc(Cl)ccc4F)cc3)nc(OC3CCNCC3)c12 [Compound 55, 5-chloro-2-fluoro-N-{4-[3-methyl-4-(piperidin-4-yloxy)-1H-pyrazolo[3,4-d]pyrimidin-6-yl]phenyl}benzenesulfonamide]
11 | 33 µM (≈ 18.5 µg/mL) | 2.5 µM (≈ 1.4 µg/mL) | Cc1n[nH]c2nc(-c3cnc(NS(=O)(=O)c4cc(Cl)ccc4F)nc3)nc(OC3CCN(C(C)C)CC3)c12 [Compound 12, 5-chloro-2-fluoro-N-(5-(4-((1-isopropylpiperidin-4-yl)oxy)-3-methyl-1H-pyrazolo[3,4-d]pyrimidin-6-yl)pyrimidin-2-yl) benzenesulfonamide]
12 | 32.9 µM (≈ 16.4 µg/mL) | 1.51 µM (≈ 0.751 µg/mL) | Cc1n[nH]c2nc(-c3ccc(NS(=O)(=O)c4ccccn4)cc3)nc(O[C@@H]3CCN(C)C[C@@H]3F)c12 [Compound 66, N-[4-(4-{[(3S,4R)-3-fluoro-1-methylpiperidin-4-yl]oxy}-3-methyl-1H-pyrazolo[3,4-d]pyrimidin-6-yl)phenyl]pyridine-2-sulfonamide]
13 | 136 µM (≈ 70.5 µg/mL) | 1.61 µM (≈ 0.834 µg/mL) | Cc1n[nH]c2nc(-c3ccc(NS(=O)(=O)c4cc(Cl)ccc4F)cc3)nc(N(C)CCN(C)C)c12 [Compound 154, 5-chloro-N-(4-(4-((2-(dimethylamino)ethyl)(methyl)amino)-3-methyl-1H-pyrazolo[3,4-d]pyrimidin-6-yl)phenyl)-2-fluorobenzenesulfonamide]
14 | 174 µM (≈ 93.1 µg/mL) | 0.7 µM (≈ 0.374 µg/mL) | Cc1n[nH]c2nc(-c3ccc(NS(=O)(=O)c4cc(Cl)ccc4F)cc3)nc(O[C@H]3CCNC[C@H]3F)c12 [Compound 46, 5-chloro-2-fluoro-N-(4-(4-(((3R,4S)-3-fluoropiperidin-4-yl)oxy)-3-methyl-1H-pyrazolo[3,4-d]pyrimidin-6-yl)phenyl)benzenesulfonamide]
15 | 315 µM (≈ 149 µg/mL) | 40 µM (≈ 18.9 µg/mL) | Cc1n[nH]c2nc(-c3ccc(NS(=O)(=O)C(C)C)cc3)nc(OC3CCN(C(C)C)CC3)c12 [Compound 5, N-(4-(4-((1-isopropylpiperidin-4-yl)oxy)-3-methyl-1H-pyrazolo[3,4-d]pyrimidin-6-yl)phenyl)propane-2-sulfonamide]
16 | 6.43 µM (≈ 3.85 µg/mL) | < 0.24 µM | Cc1n[nH]c2nc(-c3ccc(NS(=O)(=O)c4cc(Cl)ccc4F)cc3)nc(O[C@@H]3CCN(CC(F)F)C[C@@H]3F)c12 [Compound 64, 5-chloro-N-[4-(4-{[(3S,4R)-1-(2,2-difluoroethyl)-3-fluoropiperidin-4-yl]oxy}-3-methyl-1H-pyrazolo[3,4-d]pyrimidin-6-yl)phenyl]-2-fluorobenzenesulfonamide]
17 | 5.81 µM (≈ 3.04 µg/mL) | < 0.12 µM | Cc1n[nH]c2nc(-c3ccc(NS(=O)(=O)c4cc(Cl)ccc4F)cc3)nc(NCc3ccncc3)c12 [Compound 13, 5-chloro-2-fluoro-N-(4-(3-methyl-4-((pyridin-4-ylmethyl)amino)-1H-pyrazolo[3,4-d]pyrimidin-6-yl)phenyl)benzenesulfonamide]
18 | 202 µM (≈ 107 µg/mL) | 1.12 µM (≈ 0.595 µg/mL) | Cc1n[nH]c2nc(-c3ccc(NS(=O)(=O)c4cc(Cl)ccc4F)cc3)nc(OC3CN(C(C)C)C3)c12 [Compound 17, 5-chloro-2-fluoro-N-(4-[4-[(1-isopropylazetidin-3-yl)oxy]-3-methyl-1H-pyrazolo[3,4-d]pyrimidin-6-yl]phenyl)benzenesulfonamide]
19 | 178 µM (≈ 89.5 µg/mL) | 63.6 µM (≈ 32 µg/mL) | Cc1n[nH]c2nc(-c3ccc(NS(=O)(=O)c4cc(Cl)ccc4F)cc3)nc(O[C@H]3CCNC3)c12 [Compound 48, 5-chloro-2-fluoro-N-(4-{3-methyl-4-[(3S)-pyrrolidin-3-yloxy]-1H-pyrazolo[3,4-d]pyrimidin-6-yl}phenyl)benzenesulfonamide]
20 | 298 µM (≈ 153 µg/mL) | 3.8 µM (≈ 1.95 µg/mL) | Cc1n[nH]c2nc(-c3ccc(NS(=O)(=O)c4cc(F)ccc4F)cc3)nc(NCCN3CCCC3)c12 [Compound 33, 2,5-difluoro-N-(4-(3-methyl-4-((2-(pyrrolidin-1-yl)ethyl)amino)-1H-pyrazolo[3,4-d]pyrimidin-6-yl)phenyl)benzenesulfonamide]
21 | 91 µM (≈ 46 µg/mL) | 0.23 µM (≈ 0.116 µg/mL) | Cc1n[nH]c2nc(-c3ccc(NS(=O)(=O)c4cc(Cl)ccc4F)cc3)nc(OCCN(C)C)c12 [Compound 8, 5-chloro-N-(4-(4-(2-(dimethylamino)ethoxy)-3-methyl-1H-pyrazolo[3,4-d]pyrimidin-6-yl)phenyl)-2-fluorobenzenesulfonamide]
22 | 258 µM (≈ 133 µg/mL) | 299 µM (≈ 154 µg/mL) | Cc1n[nH]c2nc(-c3ccc(NS(=O)(=O)N4CCCCC4)cc3)nc(OC3CCN(C(C)C)CC3)c12 [Compound 6, N-(4-(4-((1-isopropylpiperidin-4-yl)oxy)-3-methyl-1H-pyrazolo[3,4-d]pyrimidin-6-yl)phenyl)piperidine-1-sulfonamide]
23 | 301 µM (≈ 160 µg/mL) | 15.6 µM (≈ 8.27 µg/mL) | Cc1n[nH]c2nc(-c3ccc(NS(=O)(=O)c4cc(Cl)ccc4F)cc3)nc(NC3CN(C(C)C)C3)c12 [Compound 25, 5-chloro-2-fluoro-N-(4-(4-((1-isopropylazetidin-3-yl)amino)-3-methyl-1H-pyrazolo[3,4-d]pyrimidin-6-yl)phenyl)benzenesulfonamide]
24 | 283 µM (≈ 151 µg/mL) | 11.3 µM (≈ 6.05 µg/mL) | Cc1n[nH]c2nc(-c3ccc(NS(=O)(=O)c4cc(Cl)ccc4F)cc3)nc(O[C@@H]3CCNC[C@H]3F)c12 [Compound 53, 5-chloro-2-fluoro-N-[4-(4-{[(3R,4R)-3-fluoropiperidin-4-yl]oxy}-3-methyl-1H-pyrazolo[3,4-d]pyrimidin-6-yl)phenyl]benzenesulfonamide]
25 | 17.6 µM (≈ 9.43 µg/mL) | 293 µM (≈ 157 µg/mL) | Cc1n[nH]c2nc(-c3ccc(NS(=O)(=O)c4ccc(CN)cc4)cc3)nc(OC3CCN(C(C)C)CC3)c12 [Compound 4, 4-(aminomethyl)-N-(4-(4-((1-isopropylpiperidin-4-yl)oxy)-3-methyl-1H-pyrazolo[3,4-d]pyrimidin-6-yl)phenyl)benzenesulfonamide]
26 | 16.2 µM (≈ 8.55 µg/mL) | 0.36 µM (≈ 0.19 µg/mL) | COc1ccnc(S(=O)(=O)Nc2ccc(-c3nc(O[C@@H]4CCN(C)C[C@@H]4F)c4c(C)n[nH]c4n3)cc2)c1 [Compound 62, N-[4-(4-{[(3S,4R)-3-fluoro-1-methylpiperidin-4-yl]oxy}-3-methyl-1H-pyrazolo[3,4-d]pyrimidin-6-yl)phenyl]-4-methoxypyridine-2-sulfonamide]
27 | 265 µM (≈ 143 µg/mL) | 0.27 µM (≈ 0.146 µg/mL) | Cc1n[nH]c2nc(-c3ccc(NS(=O)(=O)c4cc(Cl)ccc4F)cc3)nc(O[C@@H]3CNCC3(F)F)c12 [Compound 49, 5-chloro-N-(4-{4-[(4,4-difluoropyrrolidin-3-yl)oxy]-3-methyl-1H-pyrazolo[3,4-d]pyrimidin-6-yl}phenyl)-2-fluorobenzenesulfonamide]
